{"source": "patent US4863748A", "about": "“Dietary products and uses comprising methylsulfonylmethane” (priority 1986, dated 1989)", "key": {"[1]": {"assay": "Tolerance of intravenous infusion", "assay_type": "in vivo, human patients", "details": "for side effect at infusion rate as high as 2 gm/kg/hr: i.v., some patients", "method": "The amount of methylsulfonylmethane intravenously administered can vary substantially because of its lack of toxicity and adverse side effects. Individual doses can vary from about 0.01 to 2 gm/kg, preferably from about 0.1 to 1 gm/kg, on a body weight basis, the usual dosage range is about 0.25 to 0.75 gm/kg, preferably about 0.5 gm/kg.\nWhen large amounts are administered, e.g., in the order of 1 g/kg of body weight or more, i.e., infusion of 5% to 10% solution of methylsulfonylmethane in water, physiological saline or 5% dextrose is preferred. The rate of administration is preferably no greater than about 1 gm/kg/hr, although infusion rates as high as 2 gm/kg/hr are tolerated by patients, except for light-headedness of the type experienced by some blood donors is experienced by some patients at this rate.\nSuch massive i.v. administrations can be repeated as frequently as every 24 hours."}, "[2]": {"tested_on": "nutritional secondary hyperparathyroidism with obvious epiphysitis", "assay": "Nutritional secondary hyperparathyroidism with epiphysitis in horses (Example 3)", "assay_type": "in vivo, horse", "details": "12 grams twice daily in feed; conventional treatment 60-90 days minimum", "description": "Calcium/phosphorous balance is critical in the horse, where these elements comprise roughly 70% of the mineral content of the horse's body. Calcium deficiency, or the reverse, viz., phosphorous excess, is undesirable. Phosphorous excess in feed will decrease intestinal absorption, resulting in lowered blood plasma calcium. One result is a stimulation in the dietary deficiency condition called nutritional secondary hyperparathyroidism. Calcium denied for bone development results in an enlargement of structurally defective fibrous tissue. In horse leg bones, it is called epiphysitis when stress inflammation is presented.\nTwo colts and four fillies were studied, all diagnosed as having nutritional secondary hyperparathyroidism with obvious epiphysitis. Each was provided with 12 grams of methylsulfonylmethane twice daily in a bran/molasses blend intermixed with their standard dry feed prior to feeding. The supplemented feed was well accepted. All signs and symptoms of this nutritional deficiency disease was corrected in from seven to ten days. Conventional treatment for correcting dietary calcium deficiency requires a minimum of 60-90 days before relief from inflammation is obtained. Except for the added methylsulfonylmethane, there was no change in the diet of these […] horses. The added dietary factor corrected this easily recognizable dietary deficiency in all of the horses."}, "[3]": {"tested_on": "bilateral fibrinous pleuritis", "assay": "Bilateral fibrinous pleuritis in a breeding mare (Examples 4 and 24)", "assay_type": "in vivo, horse (mare)", "method": "A valuable breeding mare, treated for a respiratory infection developed bilateral fibrinous pleuritis, easily heard with auscultation of the chest. After six weeks therapy with a combination of conventional antibiotics and anti-inflammatory drugs, there was little if any improvement. Conventional therapy was terminated. Methylsulfonylmethane was added to the diet of this refractory case (24 g, twice daily, over a period of 5 days). This was the only special treatment given. […] Auscultation of the chest was negative."}, "[4]": {"tested_on": "pain and inflammation of musculoskeletal system disorders", "assay": "Pain associated with systemic inflammatory disorders (Example 15)", "assay_type": "in vivo, human", "description": "subject two, presented chronic arthritis with painful involvement of the lower trunk. Over the years they had evaluated most new antiarthritic, analgesic drugs with disappointing results."}, "[5]": {"tested_on": "acute pain", "assay": "Acute pain (Example 21)", "assay_type": "in vivo, human", "details": "single 1.5 gm dose; two 1 gm doses at 4-hour intervals, oral"}, "[6]": {"tested_on": "leg cramps", "assay": "Night leg cramps in geriatric patient (Example 26)", "assay_type": "in vivo, human", "details": "10 mg/kg/day", "method": "Administer methylsulfonylmethane to a geriatric patient (over 65 years) suffering from chronic night leg cramps at the rate of 10 mg/kg/day, either in tablet or capsule form, as described in parent application Ser. Nos. 418,110, 584,354 or 601,771, or in admixture with one or more foodstuffs ingested daily by the patient, e.g., milk, coffee, tea, cold desserts, etc. Within about 2 days, the leg cramps will diminish in frequency or disappear."}, "[7]": {"tested_on": "Giardia lamblia", "assay": "Treatment of Giardia infection in a subject (Example 28(b))", "assay_type": "in vivo, human", "details": "500 mg orally three times/24 hours × 14 days", "method": "One subject with confirmed Giardia, apparently contacted from contaminated water in a primitive area, was given 500 mg of methylsulfonylmethane orally three times/24 hours×14 days. By the eighth day they were asymptomatic."}, "[8]": {"tested_on": "intractable pain", "assay": "Pain in humans (Example 31)", "assay_type": "in vivo, human", "description": "The following patients suffering from intractable pain were given methylsulfonylmethane orally in the amounts and for the period of time set forth in the table below: […]"}, "[9]": {"tested_on": "myositis ossificans generalis", "assay": "Myositis ossificans generalis (Example 35)", "assay_type": "in vivo, human", "details": "one teaspoon orally in split daily doses, nearly two years", "description": "Their family belongs to a group of families each with a family member suffering from the disease. They have been on one teaspoon of methylsulfonylmethane orally, in split daily doses for nearly two years. […] No other child in the group is on methylsulfonylmethane and all are deteriorating physically. The disease cause is unknown but probably is a genetic/autoimmune type of disorder."}, "[10]": {"tested_on": "mammary carcinoma", "assay": "Resistance to DMBA-induced mammary carcinoma (Example 36)", "assay_type": "in vivo, female rats", "details": "2% by wt. in diet; Group 3; Group 2 (DMBA only) had cancers", "method": "Forty-five female rats were stabilized to the laboratory and then divided into 3 groups of 15 each. Group 1 was designated control, Groups 2 and 3 were treated by topical application to the hair-free abdomen with a solution of the carcinogen dimethyl-benzanthracene (DMBA). All three groups were each fed a standard laboratory diet with water, ad lib. Group 3 also received in […] their standard diet 2% by wt. of methylsulfonylmethane."}, "[11]": {"tested_on": "spontaneous mouse lymphomas", "assay": "Spontaneous mouse lymphomas, survival (Example 37)", "assay_type": "in vivo, laboratory mice", "details": "3% by wt. in water; all 12 controls dead by month 4", "method": "Laboratory mice genetically predisposed to lymphoma development were selected for this test. Humoral immunity participation was measured as was the effect of methylsulfonylmethane on an animal's life span. One set of 12 mice were maintained as controls. The treated (T) group received identical treatment except for their water given ad lib, which contained 3% by wt. of methylsulfonylmethane in solution.\nBy month 4 of this test, all controls were dead, due to lymphoma development. […] These normal balb/c strain mice of group T were tested for t-lymphocyte dependent (t-d) and t-lymphocyte independent (t-i) immune responses. […] Based on these preliminary results, at high enough daily rates of ingestion, methylsulfonylmethane stimulates humoral immunity thereby providing protection to otherwise lethal spontaneous mouse lymphomas."}, "[12]": {"details": "24 g twice daily, 5 days (Example 4)"}}}
{"compound": "CS(C)(=O)=O", "note": "[methylsulfonylmethane]", "values": [{"measurement": "tolerated infusion rate", "setting": "[1]; i.v. infusion", "result": "≤ 2", "unit": "gm/kg/hr"}, {"measurement": "side effect at infusion rate as high as 2 gm/kg/hr", "setting": "[1]", "result": "light-headedness"}, {"measurement": "side effect at infusion rate as high as 2 gm/kg/hr", "setting": "[1]; listed as dimethylsulfone", "result": "transient light-headedness"}, {"measurement": "time to correction of all signs and symptoms", "setting": "[2]", "result": "seven to ten"}, {"measurement": "response of pleuritis", "setting": "[3]; 2×12 gm/day in diet, five days (Example 24)", "result": "responded favorably (normal breathing, negative ausculation of the chest)"}, {"measurement": "auscultation of the chest", "setting": "[3]; [12]", "result": "negative"}, {"measurement": "breathing at fifth day", "setting": "[3]; [12]", "result": "returned to normal"}, {"measurement": "pain at fifth day", "setting": "[3]; [12]", "result": "no longer demonstrated pain"}, {"measurement": "state over the next two years", "setting": "[3]; followed two years after treatment (Example 4)", "result": "normal and healthy"}, {"measurement": "relief of pain and inflammation, musculoskeletal system disorders", "setting": "[4]; about 100 up to about 5,000 mg per day", "result": "substantial and long lasting relief"}, {"measurement": "relief in migraine sufferers", "setting": "[4]; oral 50-500 mg per day", "result": "substantial relief"}, {"measurement": "pain after about 16 months", "setting": "[4]; subject two, 1/4-1/2 tsp. daily", "result": "substantially pain-free"}, {"measurement": "pain relief by the end of the second week", "setting": "[4]; subject two, chronic arthritis, 1/2 tsp. daily", "result": "almost total pain relief"}, {"measurement": "relief of acute mid-back pain (calculi obstructed ureter) and lower abdomen pain spasms", "setting": "[5]", "result": "proven useful in relieving acute pain"}, {"measurement": "time until leg cramps diminish in frequency or disappear", "setting": "[6]", "result": "about 2 days"}, {"measurement": "organism in two stool specimens", "setting": "[7]; collected one week apart", "result": "free of the organism"}, {"measurement": "symptoms by the eighth day", "setting": "[7]; one subject", "result": "asymptomatic"}, {"measurement": "Results", "setting": "[8]; A. B., 69 F, Deg. Arth., 0.5 bid × 18 months", "result": "pain relief"}, {"measurement": "Results", "setting": "[8]; B. A., 63 F, Deg. Arth., 0.25 g qid", "result": "pain relief"}, {"measurement": "Results: pain relief", "setting": "[8]; C. A., 62 M, Bursitis Chronic, 0.25 g bid × 3 months", "result": 50, "unit": "%"}, {"measurement": "Results", "setting": "[8]; D. B., 35 M, Low back pain, 0.5 g qid × 9 months", "result": "pain relief"}, {"measurement": "Results: muscle pain", "setting": "[8]; I. B., 62 F, Multiple Sclerosis, 0.5 bid × 18 months", "result": "reduction"}, {"measurement": "Results", "setting": "[8]; M. A., 55 F, Rh. Arth., 0.25 g bid × 9 months", "result": "pain relief"}, {"measurement": "Results", "setting": "[8]; N. B., 62 M, Tendonitis, 0.25 g qid", "result": "reduced pain"}, {"measurement": "Results", "setting": "[8]; P. A., 61 F, Deg. Arth., 1 g 4×/day × 19 months", "result": "pain relief"}, {"measurement": "condition of the patient", "setting": "[9]", "result": "out of their wheelchair and is improving"}, {"measurement": "disease process", "setting": "[9]; child A. Z.", "result": "stopped"}, {"measurement": "mammary carcinoma at 5 months post DMBA", "setting": "[10]", "result": "free of mammary carcinoma"}, {"measurement": "deaths by month 5", "setting": "[11]", "result": "No T group mice had died"}]}
